Series [1] addresses RAC-alpha serine/threonine-protein kinase (Homo sapiens) (UniProt P31749). Briefly: Inhibition of AKT phosphorylation in human TG1 cells at 300 uM after 30 mins by Western blot analysis. Type of series: cell-based. A general note: Immunoblotting shows a protein as a band on a membrane.
For series [2] the target is unchanged. In words: Inhibition of AKT phosphorylation in human TG10 cells at 300 uM after 30 mins by Western blot analysis. Format: cell-based.
Series [3] can be described thus: (§1) Antiproliferative against human TG1 cells at 300 uM after 24 hrs by WST-1 assay. Type of series: functional. For orientation: Tetrazolium assays rely on reduction of a dye to a coloured formazan, in cell work by metabolically active cells.
Series [4] concerns the target RAC-alpha serine/threonine-protein kinase (Homo sapiens) (UniProt P31749). Briefly: Inhibition of AKT phosphorylation in human NSC-24 cells at 300 uM after 30 mins by Western blot analysis. Format: cell-based.
Series [5] in a line: (§2) Antiproliferative against human TG10 cells at 300 uM after 24 hrs by WST-1 assay. Type of series: functional.
Series [6] is described as follows: Antiproliferative against human NSC-24 cells at 300 uM after 24 hrs by WST-1 assay. Type of series: cell-based. The following applies: nsc-24, 24 h.
A short description of series [7]: (§3) Antiproliferative against human TG1 cells at 30 to 300 uM after 24 hrs by WST-1 assay. Format: functional.
Series [8] deals with TG1. Described as §3. Format: functional.
Series [9] in a line: Antiproliferative against human NSC-24 cells at 30 to 300 uM after 24 hrs by WST-1 assay. Type of series: cell-based. The following applies: nsc-24, 24 h.
Series [10] in a line: Antiproliferative against human TG10 cells at 30 to 300 uM after 24 hrs by WST-1 assay. Format: functional.
The subject of series [11] is TG1. Described as §1. Type of series: functional.
For another series, the system named is TG10. The series is described as §2. Type of series: functional.
Series [12] in a line: Antiproliferative against human TG1 cells after 24 hrs by WST-1 assay. Format: functional.
A short description of series [13]: Antiproliferative against human TG10 cells after 24 hrs by WST-1 assay. Type of series: functional.

Among the data in ChEMBL document CHEMBL3217608, “Alkaloids from Rutaceae: activities of canthin-6-one alkaloids and synthetic analogues on glioblastoma stems cells” (Medchemcomm, 2012) are inhibition and Activity values, retold here.

Calls of active or inactive are those of the source. The rule behind the calls is not given here.

RAC-alpha serine/threonine-protein kinase (Homo sapiens), sequence (P31749 whole entry): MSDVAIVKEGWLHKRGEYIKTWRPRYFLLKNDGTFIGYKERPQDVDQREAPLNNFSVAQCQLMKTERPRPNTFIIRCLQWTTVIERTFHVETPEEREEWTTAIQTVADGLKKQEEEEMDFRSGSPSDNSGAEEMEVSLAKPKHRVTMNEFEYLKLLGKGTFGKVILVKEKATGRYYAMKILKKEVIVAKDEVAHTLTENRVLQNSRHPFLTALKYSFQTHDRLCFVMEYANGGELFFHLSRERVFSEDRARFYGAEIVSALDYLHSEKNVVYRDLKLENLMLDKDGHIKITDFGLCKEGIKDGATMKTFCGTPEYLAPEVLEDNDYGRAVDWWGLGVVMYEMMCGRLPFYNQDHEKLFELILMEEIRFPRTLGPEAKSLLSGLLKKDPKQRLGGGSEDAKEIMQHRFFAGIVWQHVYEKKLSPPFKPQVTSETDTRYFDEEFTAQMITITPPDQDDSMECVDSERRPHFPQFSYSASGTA

Turning to `O=c1ccc2nccc3c4cc(OCc5ccccc5)ccc4n1c23`, the inhibition entry in series [1] and in series [2] was “Active” throughout. Also, the Activity in series [3] was 40%; in series [5], 85%; in series [6], “Non-toxic”; in series [7] it was 40%. The inhibition result in [4] is “inactive”.
Consider `COc1ccc2c(c1)c1ccnc3ccc(=O)n2c31`, for which, in the series on TG1 [8], the result was inactive.
For `Nc1cc(=O)n2c3ccccc3c3ccnc1c32`, the result in the series on TG1 [8] was inactive.
Take `O=C1CCc2nccc3c4ccccc4n1c23`: the outcome in the series with TG1 [8] was inactive.
The same measure, in the same setting: the entry for `O=c1c2ccccc2c2nccc3c4ccccc4n1c32` is “inactive”; for `O=c1ccc2c3c(cc[n+]2[O-])c2ccccc2n13` it is “inactive”.
`COc1cc2nccc3c4ccccc4n(c1=O)c23` [5-METHOXYCANTHINONE]: the inhibition entry in [1], in [2] and in series [4] was “Active” throughout. Besides, the figures for the Activity in series [9], in series [10] and in series [7] were 60%, 35% and 40%, respectively.
In the case of `O=c1ccc2nccc3c4ccccc4n1c23` [CANTHIN-6-ONE], the inhibition result in [1] and in [2] was “Active” each time. Besides, the result in the series with TG1 [11] and in the series on TG10 was Active. Moreover, the Activity was 60% in series [9], 35% in [10] and 40% in [7].
Regarding `Cn1nnc2c(C(N)=O)ncn2c1=O` [TEMOZOLOMIDE], the Activity in [12] and in [13] was greater than 80% in each case.
